Source: patent US20250242060A1, “CHEMOGENETIC REGULATION OF PEPTIDE FUNCTION” (priority 2022, published 2025)
“Also recorded” adds a separate entry of the source.

Tests used:
[1] = test system: CAPs-caged TEVcs with TEV protease in HEK 293T cells; experiment: Shield-1 induced delocalization from the plasma membrane to the cytosol; type: cell-based; settings: 10 μM shield-1, 18 h
Method: CAPs-caged TEVcs were anchored to the plasma membrane, followed by the POI (FIG. 9c). Under no shield-1 conditions, TEVcs are inaccessible to the co-expressed TEV protease, and the POI remains localized on the plasma membrane. With shield-1, TEVcs are uncaged and cleaved by TEV protease, thereby releasing the POI from the cell membrane.
Two extra wells without any infection are also plated for background subtraction. […] The two non-infection wells are treated with shield-1 and without shield-1, respectively. HEK 293T cells were incubated for 18 h at 37° C. before imaging.

mu-opioid receptor (MOR) [2] = experiment: GloSensor cAMP assay, single chain met-enkephalin-CapC-MOR; settings: HEK 293T, forskolin stimulated
Text: A cyclic adenosine monophosphate (cAMP)-dependent luciferase (GloSensor) was used to monitor the activation of mu-opioid receptor. By expressing the real-time sensor GloSensor in cells, greater luminescence is observed when the cAMP concentration is high, and lower luminescence when the cAMP concentration is low. The GloSensor assay complements the split NanoLuc assay because it measures a downstream event rather than just binding between a G protein and the receptor i.e., membrane tethered opioid peptides (M-PROBE) activation not only causes G protein recruitment, but also downstream signaling events.
To test whether the M-PROBE induces downstream signaling as a free opioid, and that function of met-enkephalin is well-preserved in the membrane-tethered geometry, the same single chain met-enkephalin-CapC-MOR was expressed on the membrane of HEK 293T cells, and co-transfected cells with the cAMP-dependent luciferase. After overnight protein expression, HEK 293T cells were stimulated with forskolin to enhance the cAMP concentration within the cells. MOR is an inhibitory G-protein coupled receptor (GPCR), and its activation leads to decreased cAMP levels. A high cAMP concentration magnifies the effect of MOR activation.

[3] = molecular target: T1, LID (FKBP with original binding sequence) fused to SsrA (Homo sapiens, UniProt P62942, F37V); experiment: Yeast surface binding assay, SsrA caged by LID; settings: LID degradation sequence replaced with SsrA
T1 construct: expressed in transfected cells; host or cells: Saccharomyces cerevisiae EBY100, surface display from pCTCON2
T1 sequence (P62942 with tags, fused parts or gaps F37V): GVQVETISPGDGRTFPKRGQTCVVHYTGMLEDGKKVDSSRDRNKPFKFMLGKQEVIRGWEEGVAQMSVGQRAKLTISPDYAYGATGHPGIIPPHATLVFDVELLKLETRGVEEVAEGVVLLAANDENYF
Method: (§1) The ability of LID to cage two short peptides that have been previously shown to be controllable by the AsLOV2 domain was tested. […] The degradation sequence (RRRGN) in LID was replaced with TEVcs or SsrA, and the remainder of the binding sequence and linker was retained (FIG. 1d).
Yeast that expressed SsrA (CapC constructs) was subject to APEX2 labeling^40 prior to labeling with antibody-fluorophore and streptavidin-fluorophore conjugates. Samples were incubated with 100 μL of PBSB containing SspB-APEX2 (expressed and purified as described above, under “Expression and purification of SspB-APEX2”) and 5 μM shield-1 at room temperature for 10 min with rotation. […]
(§2) After TEVp or APEX2 labeling, samples were labeled with antibody-fluorophore and/or streptavidin-fluorophore conjugates. […] All samples were resuspended in PBSB and analyzed or sorted by FACS (fluorescence-activated cell sorting, following procedures described under “FACS analysis and library selection”) within 24 h of labeling.
(§3) After labeling according to the procedures described above (under “Yeast labeling”), non-library yeast samples were analyzed with an LSRFortessa cell analyzer flow cytometer (BD Biosciences) equipped with 640 nm laser and 670/14 emission filter (for Alexa Fluor647) as well as 561 nm laser and 586/15 emission filter (for Alexa Fluor568 and PE). […]

[4] = molecular target: T2, LID (FKBP with original binding sequence) fused to TEVcs (Homo sapiens, UniProt P62942, F37V); experiment: Yeast surface protease cleavage assay, TEVcs caged by LID; type: biochemical; settings: LID degradation sequence replaced with TEVcs
T2 construct: TEVcs (ENLYFQ/G) (C); HA (C); expressed in transfected cells; host or cells: Saccharomyces cerevisiae EBY100, surface display from pCTCON2
T2 sequence (P62942 with tags, fused parts or gaps F37V limits assumed): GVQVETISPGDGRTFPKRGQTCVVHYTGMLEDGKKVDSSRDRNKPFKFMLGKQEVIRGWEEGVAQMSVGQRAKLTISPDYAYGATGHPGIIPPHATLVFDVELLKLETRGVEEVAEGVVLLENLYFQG
Method: as §1
Yeast that expressed TEV protease cleavage site (CapN constructs) was treated with TEVp prior to labeling with antibody-fluorophore conjugate. Samples were incubated with 200 μL PBSB containing TEVp (expressed and purified as described above, under “Expression and purification of TEV protease”) and 5 μM shield-1 at 4° C. for 3 h with rotation. For negative control, either TEVp or shield-1, or both, was not present in PBSB. […]
as §2, §3

[5] = molecular target: T3, CAPs-caged SsrA split transcription factor (P2A construct u4) in rat cortical neurons UniProt P62942, F37V); experiment: Shield-1 dependent gene transcription in cultured neurons, TetR DBD, TRE-mCherry reporter; type: cell-based; settings: AAV, 2 μM shield-1, 24 h
T3 construct: P2A self-cleaving peptide, separating it from the SspB-VP16 part (cleaved yes); host or cells: cultured rat cortical neurons, AAV
T3 sequence (P62942 with tags, fused parts or gaps F37V limits assumed): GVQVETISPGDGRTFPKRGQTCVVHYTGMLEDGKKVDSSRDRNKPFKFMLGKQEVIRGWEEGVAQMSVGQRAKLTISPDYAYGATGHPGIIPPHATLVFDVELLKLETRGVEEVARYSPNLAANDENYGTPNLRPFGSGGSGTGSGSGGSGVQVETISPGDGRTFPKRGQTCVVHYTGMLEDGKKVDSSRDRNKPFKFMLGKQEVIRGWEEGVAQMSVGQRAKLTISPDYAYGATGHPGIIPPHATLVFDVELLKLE
Method: To test the CAPs chemical-dependent transcriptional system in neuroscience applications, it was tested in cultured neurons. To enable homogeneous expression of DNA in stringent experiments, we generated single viral constructs that express both the DNA-binding and the transcription-activation domains via the self-cleaving peptide P2A or the internal ribosome entry site (TRES) were constructed (FIG. 12b). […] The P2A construct was then used to introduce the TetR DBD and VP16 transcription-activation domain into cultured rat cortical neurons through adeno-associated viruses (AAV), together with another AAV encoding the TRE-mCherry reporter gene. Shield-1 induced 44-fold increase in mCherry reporter gene expression compared to the no shield-1 condition (FIG. 12e and FIG. 19), showing that this system works robustly in cultured neurons.
Rat cortical neurons (Thermo Fisher Scientific, Cat #A1084001) were plated according to the user protocol. […] The viable cell density was determined by adding 10 μL of the cell suspension to 10 μl 0.4% Trypan blue, followed by cell counting using hemocytometer. […]
For neuronal infection, either concentrated AAVes or supernatant AAVes were added the neurons at DIV5-DIV10 (days in vitro). […] P values were determined by unpaired two-tailed t-tests.

FKBP12(F36V) = FKBP12(F36V) (Homo sapiens, UniProt P62942, F37V); settings: cited from earlier work
Sequence of FKBP12(F36V) (P62942 whole entry F37V): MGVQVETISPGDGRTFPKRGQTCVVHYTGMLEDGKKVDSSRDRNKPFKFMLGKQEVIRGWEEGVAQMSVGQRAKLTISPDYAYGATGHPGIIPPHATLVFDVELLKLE

CapN = molecular target: T4, CapN (Homo sapiens, UniProt P62942, F37V); experiment: Shield-1 reversibility characterization with CapN-caged SsrA on yeast surface; type: binding; settings: 10 min shield-1, washed, incubated up to 12 h without shield-1
T4 construct: expressed in transfected cells; host or cells: Saccharomyces cerevisiae EBY100, surface display from pCTCON2
T4 sequence (P62942 with tags, fused parts or gaps F37V): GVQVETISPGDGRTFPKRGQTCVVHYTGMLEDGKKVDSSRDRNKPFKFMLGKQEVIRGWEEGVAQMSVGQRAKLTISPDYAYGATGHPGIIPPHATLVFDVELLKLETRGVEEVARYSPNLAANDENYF
Method: FIG. 4. […] Yeast cells were incubated with shield-1 for 10 min, followed by washing to remove excess shield-1. […] Values are median biotin intensity of FLAG-positive cells (Q2+Q4). […] This experiment was performed once.
Yeast that expressed SsrA (CapC constructs) was subject to APEX2 labeling^40 prior to labeling with antibody-fluorophore and streptavidin-fluorophore conjugates. Samples were incubated with 100 μL of PBSB containing SspB-APEX2 (expressed and purified as described above, under “Expression and purification of SspB-APEX2”) and 5 μM shield-1 at room temperature for 10 min with rotation. For negative controls, either SspB-APEX2 or shield-1, or both, was not present in PBSB. […]
as §2, §3

mu-opioid receptor (MOR) [6] = experiment: Split NanoLuc assay, 1-chain CapC-caged met-enkephalin fused to opioid receptor, Nb44 recruitment; type: cell-based; settings: HEK293T cells, 1-chain design
Text: To test shield-1 chemical-dependent regulation of an opioid peptide, CapC-caged met-enkephalin was fused directly onto the N-terminus of the opioid receptor as shown in the right panel of FIG. 22. In this design, the M-PROBE cell membrane tethered opioid peptides (M-PROBE) and the opioid receptors were expressed in a fixed ratio in close proximity.

[7] = test system: CAPs-caged NLS (PKIt NES-EGFP-CapN-NLS-CapC) in HEK 293T cells; experiment: Shield-1 controlled nuclear-cytoplasmic protein distribution; type: cell-based; settings: 10 μM shield-1, 18 h
Text: The nucleocytoplasmic distribution of many eukaryotic proteins is a common determinant of their functions^30. Previously, NLS has been controlled by light through customized engineering with the AsLOV2 domain^13,14. To test if NLS is controlled by CAPs in a shield-I-dependent manner, a single-chain construct was designed in which a POI is expressed as a fusion protein with CAPs-caged NLS (FIG. 9e). […] Addition of shield-1 opens the CAPs and exposes NLS to endogenous importins, bringing the POI to the nucleus. Due to the strength of the NLS, a weak nuclear export signal, PKIt^13, was added to the construct to reduce the nuclear localization of the protein in the basal state.
HEK 293T cells were incubated for 18 h at 37° C. before imaging. […] Individual cells and the nuclei are determined by mCherry signal. Mean intensity and area are acquired with Nikon NIS-Elements analysis module. Mean intensities were subtracted by background mean intensity, and the resulting number is multiplied with the area to give total intensities. The EGFP distribution ratio was calculated by the total intensity of EGFP in the cytosol to that in the whole cell. P value was determined by unpaired two-tailed t-tests.

[8] = molecular target: CAPs-caged SsrA (mCherry-CapN-SsrA-CapC-CAAX) with SspB-EGFP in HEK 293T cells (Homo sapiens, UniProt P62942, F37V); experiment: Shield-1 induced protein translocation to the plasma membrane; settings: 1 μM shield-1
Text: To test use of CAPs for protein translocation, a shield-1 induced membrane localization system was designed (FIG. 9). In this design, CAPs-caged SsrA peptide is localized on the plasma membrane of HEK 293T cells by fusing to a transmembrane domain. The interacting partner of SsrA, SspB protein, is fused to the protein of interest (POI). As an example, evolved green fluorescent protein (EGFP) was used as the POI. Without shield-1, no binding between SsrA and SspB occurs, and EGFP is found throughout the cell.
Cells were incubated for 24 h at 37° C. before further processing. HEK293T cells were imaged with 60× oil-immersion objective on the Nikon inverted confocal microscope. Shield-1 dissolved in complete growth media was added gently to the top of the media to 1 μM during imaging. The intensity profile was acquired with Nikon NIS-Elements analysis module and plotted by GraphPad Prism 7.

[9] = test system: CAPs-caged SsrA split transcription factor in HEK 293T cells; experiment: Shield-1 dependent gene transcription activation, Gal4 DBD, UAS-mCherry reporter; type: cell-based; design: Gene expression (mCherry) at different shield-1 concentrations: dose or concentration left out as unconfirmed; settings: for Shield-1-induced increase in mCherry intensity: + vs - shield-1

CC[C@H](C(=O)N1CCCC[C@H]1C(=O)O[C@H](CCc1ccc(OC)c(OC)c1)c1cccc(OCCN2CCOCC2)c1)c1cc(OC)c(OC)c(OC)c1 [shield-1]
EGFP localization after shield-1 addition [1]: depletes EGFP from the plasma membrane; also recorded: depleted the EGFP from the plasma membrane and significantly increased its presence in the cytoplasm
Decrease in luminescence (mu-opioid receptor (MOR) [2]; shield-1 treated): ~50%
Shield-1 dependence of SsrA accessibility [3]: not observed
Shield-1 dependence of TEVcs accessibility [4]: not observed
Increase in mCherry reporter gene expression vs no shield-1 [5]: 44 fold
Affinity for FKBP relative to wild-type FKBP (FKBP12(F36V); FKBP12(F36V) vs wild-type FKBP): over 1000 fold
Affinity for FKBP (FKBP12(F36V); FKBP12(F36V)): sub-nanomolar
Biotin signal / CapN state after washing away shield-1 (CapN): No decrease in biotin signal; also recorded: CapN remained open
Luminescence signal (RLU) (mu-opioid receptor (MOR) [6]): increase the signal
EGFP nuclear-cytosolic distribution after shield-1 addition [7]: depleted from the cytosol and preferentially localized in the nucleus
Time to EGFP translocation to the plasma membrane [8]: within seconds
Shield-1-induced increase in mCherry intensity ([9]; CAPs (tandem) caged 8-amino-acid SsrA): ~25 fold
Shield-1 dependent reporter gene expression change ([9]; CAPs caged 7-amino-acid SsrA (AANDENY), construct u3): 156 fold
Shield-1-induced increase in mCherry intensity ([9]; CapN caged 8-amino-acid SsrA): ~4 fold
Gene expression (mCherry) at different shield-1 concentrations ([9]; construct u3): robust gene expression
Shield-1 incubation period sufficient to induce gene expression ([9]; construct u3, 1 μM shield-1, imaged 24 h after addition): 30 min
Gene expression induction ([9]; construct u3, overnight incubation, shield-1 50 nM or above): > 30 fold
Gene expression ([9]; construct u3, overnight incubation, shield-1 below 10 nM): did not induce gene expression
Shield-1 dependent dynamic range ([9]; maximum over caged peptides): up to 156 fold
Level of EGFP (transcription-activation domain expression) ([9]; shield-1 added to EGFP-SspB-VP16 alone): No difference was found; also recorded: did not increase the level of EGFP
Increase in mCherry expression ([9]; single viral IRES construct (u5)): 123 fold
Increase in mCherry expression ([9]; single viral P2A construct (u4)): 83 fold

C[C@@H](NC(=O)[C@@H](N)Cc1ccc(O)cc1)C(=O)NCC(=O)N(C)[C@@H](Cc1ccccc1)C(=O)NCCO [DAMGO]
Decrease in luminescence (mu-opioid receptor (MOR) [2]; 10 micromolar): ~80%
